# How the values were obtained:
# [1] = molecular target: T1, r-LvMFBP (XP_027209752.1; methyl farnesoate-binding protein, MFBP); assay: isothermal titration calorimetry; set-up: species or system Penaeus vannamei; conditions: 20 uM protein, 200 uM ligand, 20 mM Tris-HCl pH 7.5, 30 C
# T1 construct: recombinant, E. coli BL21-T1R, HisTALON (His-tag) purified; precursor 215 aa with 16 aa signal peptide, mature 199 aa
# [2] = molecular target: T1, r-LvMFBP (XP_027209752.1; methyl farnesoate-binding protein, MFBP); assay: isothermal titration calorimetry (also surface plasmon resonance); set-up: species or system Penaeus vannamei; conditions: ITC: 20 uM protein, 200 uM ligand, 20 mM Tris-HCl pH 7.5, 30 C; SPR: immobilized protein, PBST pH 7.4
Kd [2] [µM],SMILES,Kd [1] [µM]
,"CC(C)=CCC/C(C)=C/CC/C(C)=C/C(=O)O [FA, farnesoic acid]",630
0.666,"COC(=O)/C=C(\C)CC/C=C(\C)CCC=C(C)C [MF, methyl farnesoate]",
,"COC(C)(C)CCCC(C)C/C=C/C(C)=C/C(=O)OC(C)C (stereo not drawn) [Met, methoprene]",34.7

# — paper PMC12256323, “Crustacean methyl farnesoate–binding protein is an insect juvenile hormone–binding protein homolog that inhibits molting” (The Journal of Biological Chemistry, 2025)
